According to US20230118497A1, “PYRAZOLE-CONTAINING POLYCYCLIC DERIVATIVE INHIBITOR, PREPARATION METHOD THEREFOR AND APPLICATION THEREOF” (Shanghai Hansoh Biomedical Co., Ltd., priority 2019, published 2023):

Key:
[1] = molecular target: T1, CYP450 enzyme isoform 2C9 (Homo sapiens, UniProt P11712); assay: CYP enzyme single-point inhibition assay, 2C9; format: in vitro ADME; details: human liver microsome, single-point method
T1 construct: single-point method using human liver microsome incubation system; from tissue; host or cells: human liver microsomes
Procedure: Test Example 7. CYP Enzyme Single-Point Inhibition Assay
The inhibition of the compounds on CYP450 enzyme isoformwas rapidly predicted by single-point method using human liver microsome incubation system.
2.5 mM NADPH: 4.165 mg of NADPH (reduced nicotinamide adenine dinucleotide phosphate) was weighed, followed by addition of 100 mM phosphate buffer to 2 mL. 0.25 mg/mL microsome solution: 4 mL of 100 mM phosphate buffer was added to 50 μL of 20 mg/mL microsome solution and mixed well.
The test compound of the Example was weighed, diluted to 10 mM with DMSO and then to 100 μM with 100 mM phosphate buffer.
1. 40 μL of liver microsome, 10 μL of substrate and 10 μL of the test compound were added to a 96-well plate and pre-incubated for 3 min.
2. 40 μL of NADPH was added.
3. 300 μL of acetonitrile stop solution containing internal standard was added at 20 min.
4. The sample was centrifuged and injected.

1321N1-hP2X3 receptor = molecular target: T2, 1321N1-hP2X3 receptor (Homo sapiens, UniProt P56373); assay: Calcium ion mobility (FLIPR) in cells stably expressing 1321N1-hP2X3 receptors; format: cell-based; details: calcium signal, agonist at EC80
T2 construct: host or cells: 1321N1
T2 sequence (P56373 1-397): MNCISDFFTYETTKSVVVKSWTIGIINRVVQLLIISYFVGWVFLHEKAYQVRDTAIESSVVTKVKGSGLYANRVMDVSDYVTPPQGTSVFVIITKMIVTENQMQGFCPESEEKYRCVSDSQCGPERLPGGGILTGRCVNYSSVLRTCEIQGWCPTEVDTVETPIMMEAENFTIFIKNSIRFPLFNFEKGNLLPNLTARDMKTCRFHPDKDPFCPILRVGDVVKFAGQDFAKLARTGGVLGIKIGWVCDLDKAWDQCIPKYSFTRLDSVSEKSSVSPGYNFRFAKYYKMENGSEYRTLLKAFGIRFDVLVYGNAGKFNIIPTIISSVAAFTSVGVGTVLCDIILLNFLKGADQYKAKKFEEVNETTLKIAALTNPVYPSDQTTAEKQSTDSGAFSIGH
Procedure: Test Example 1. Determination of the Effect of the Compounds of the Present Invention on Calcium Ion Mobility in Cells Stably Expressing 1321N1-hP2X3 Receptors
To determine the inhibitory activity of the compounds on 1321N1-hP2X3 receptor.
Stably transfected cell line: 1321N1-hP2X3 (supplied by Shanghai ChemPartner Chemical Research Co., Ltd.).
Assay buffer: 1*HBSS+20 mM HEPES;
Cell culture medium: DMEM+10% FBS+75 µg/mL Hygromycin B+300 µg/mL G418;
Plating medium: DMEM+10% DPBS;
0.5*Dye: 10*Dye stock+1.25 Probenecid+1*assay buffer+0.5 U/mL ATP hydrolytic enzyme;
2. The cells were cultured to 70%-90% confluency in the cell culture medium at 37° C., 5% CO2. The medium was discarded, and the cells were added with 2 mL of Versene, and the cells were placed in an incubator at 37° C. for 2 to 5 min. The cells were collected by addition of 10 mL of plating medium and counted. The cells were seeded to the 384-well assay plate by addition of 50 μL solution (a density of 1×10^4 cells/well) to each well, and incubated for 16 to 24 hours (at least overnight).
3. The medium was discarded, and 30 μL of 1× dye was added. The cells were incubated at 37° C. in the dark for 60 min.
4. The compound powder was dissolved in DMSO to obtain a 20 mM stock solution. 180× compound with required concentration was formulated, and diluted in gradient for concentration points.
5. Preparation of compound plate: 500 nL of 180× compound was transferred to the compound plate (source plate for FLIPR) using ECHO. 30 μL of assay buffer was added to each well, and the plate was shaken gently for 20 to 40 minutes.
6. Determination: 15 μL of 3× compound was taken from each well and added to the cell plate. The samples were added by FLIPR instrument, and the calcium signals were detected. After 15 minutes, 22.5 μL of 3× agonist (EC80 concentration) was added to each well and the calcium signals were detected.
The calcium signal values were determined by FLIPR. The ratio of the 340/510 nm wavelength signals to 380/510 nm wavelength signals was used as the calculated results for each sampling time point in the experiment. The calculation of maximum minus minimum was derived from the ratio signal curve.
The percent inhibition rate and ten-point concentration data were fitted to the parametric nonlinear logistic equation by using GraphPad prism to calculate the IC50 values of the compounds.

[2] = Metabolic stability in liver microsome (dog); format: in vitro ADME; details: dog liver microsome 0.5 mg/mL, compound 1 μM; for half-life at 1 μM: liver microsomes, NADPH/UDPGA
Procedure: Test Example 5. Assay of Metabolic Stability in Liver Microsome
The objective of the experiment is to determine the stability of the compounds of the Examples in liver microsome of mouse, rat, dog and human.
Formulation of the working solution of the compound: The stock solution of the compound was added to phosphate buffer, and the final concentration was 20 μM.
Liver microsome was diluted with 100 mM phosphate buffer to obtain a final concentration of 0.625 mg/mL.
NADPH (reduced nicotinamide adenine dinucleotide phosphate) and UDPGA (uridine diphosphate glucuronic acid) were weighed respectively, followed by addition of 100 mM phosphate buffer. The final concentrations were 20 mM.
1 mg of Alamethicin was weighed, to which 200 μL of DMSO was added to obtain a 5 mg/mL solution. The solution was diluted with phosphate buffer to obtain a final concentration of 50 μg/mL.
2.5 Formulation of the reaction stop solution Stop solution: Cold acetonitrile containing 100 ng/mL labetalol hydrochloride and 400 ng/mL tolbutamide as internal standards.
400 μL of the prepared liver microsome, 25 μL of the working solution of the compound and 25 μL of Alamethicin were added to a 96-well plate successively, which was then pre-incubated at 37° C. for 10 min. 50 μL of the prepared NADPH/UDPGA was added to initiate the reaction, and the plate was incubated at 37° C. The total volume of the reaction system was 500 μL. The final contents of the components were as follows: […]

T1 sequence (P11712 whole entry, canonical isoform): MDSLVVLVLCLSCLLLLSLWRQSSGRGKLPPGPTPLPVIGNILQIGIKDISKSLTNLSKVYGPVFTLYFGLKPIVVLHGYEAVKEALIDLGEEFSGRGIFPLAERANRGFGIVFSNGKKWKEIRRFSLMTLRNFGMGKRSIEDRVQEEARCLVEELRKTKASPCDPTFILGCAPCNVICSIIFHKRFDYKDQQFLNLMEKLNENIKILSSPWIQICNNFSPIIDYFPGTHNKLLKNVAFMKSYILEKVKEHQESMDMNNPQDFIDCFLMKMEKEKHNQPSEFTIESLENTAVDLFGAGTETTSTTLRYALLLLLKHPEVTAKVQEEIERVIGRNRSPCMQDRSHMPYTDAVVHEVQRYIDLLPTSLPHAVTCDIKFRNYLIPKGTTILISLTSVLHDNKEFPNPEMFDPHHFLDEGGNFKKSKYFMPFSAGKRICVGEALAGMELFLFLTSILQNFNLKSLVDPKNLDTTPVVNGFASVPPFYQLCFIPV

Row | Structure (SMILES) | IC50 [1] | IC50 (1321N1-hP2X3 receptor) | Remaining (%, 60 min) [2] | half-life at 1 μM [2]
1 | CCc1cc2n(CC(=O)Nc3ccc(F)cn3)c(=O)c3ccc(C(F)(F)F)nc3n2n1 [Example 34, 2-(2-Ethyl-5-oxo-8-(trifluoromethyl)pyrazolo[1,5-a]pyrido[3,2-e]pyrimidin-4(5H)-yl)-N-(5-fluoropyridin-2-yl)acetamide] | > 100000 nM | 63.4 nM | – | –
2 | O=C(Cn1c(=O)c2ccc(C(F)(F)F)nc2n2nc(Br)cc12)Nc1ccc(F)cn1 [Example 61-A, 2-(2-bromo-5-oxo-8-(trifluoromethyl)pyrazolo[1,5-a]pyrido[3,2-e]pyrimidin-4(5H)-yl)-N-(5-fluoropyridin-2-yl)acetamide] | > 100000 nM | 76.4 nM | 96.0% | 15.6 h
3 | N#Cc1cc2n(CC(=O)Nc3ccc(F)cn3)c(=O)c3ccc(C(F)(F)F)nc3n2n1 [Example 68, 2-(2-Cyano-5-oxo-8-(trifluoromethyl)pyrazolo[1,5-a]pyrido[3,2-e]pyrimidin-4(5H)-yl)-N-(5-fluoropyridin-2-yl)acetamide] | > 100000 nM | 32.5 nM | 99.0% | 22.5 h
4 | O=C(Cn1c(=O)c2ccc(C(F)(F)F)nc2n2nccc12)Nc1ccc(F)cn1 [Example 78, N-(5-Fluoropyridin-2-yl)-2-(5-oxo-8-(trifluoromethyl)pyrazolo[1,5-a]pyrido[3,2-e]pyrimidin-4(5H)-yl)acetamide] | > 100000 nM | 49 nM | 93.4% | 11.2 h
5 | N#Cc1cnn2c3nc(C(F)(F)F)ccc3c(=O)n(CC(=O)Nc3ccc(F)cn3)c12 [Example 80, 2-(3-Cyano-5-oxo-8-(trifluoromethyl)pyrazolo[1,5-a]pyrido[3,2-e]pyrimidin-4(5H)-yl)-N-(5-fluoropyridin-2-yl)acetamide] | – | 64.3 nM | – | –
